Results published in patent publication EP0641797A1, “Cephem derivatives and antimicrobial agents containing the same” (KATAYAMA SEIYAKUSYO CO. Ltd., priority 1993, dated 1995).
≈ marks a conversion by molar mass, not a printed value.

What was measured:
Assay in all cases: MIC on standard strains, standard method of Japan Society of Chemotherapy
Format in all cases: cell-based
[1] = tested on: E. coli CSH2(RK1); details: Escherichia coli
Protocol: (§1) Antimicrobial activity of the compounds of the present invention were measured using CTM (cefotiam) and FMOX (flomoxef) as control drugs in accordance with the standard method of Japan Society of Chemotherapy. Of the 25 standard strains used in this test, Staphylococcus aureus 167 and Staphylococcus aureus 195 belong to MRSA.
(§2) In these tables, drugs tested are shown by the corresponding examples in which they were synthesized.

[2] = tested on: S. marcescens No. 16-2; details: Serratia marcescens, NO.162
Protocol: as §1, §2

[3] = tested on: S. aureus Smith; details: Staphylococcus aureus, read-out: MIC
Protocol: as §1, §2

[4] = tested on: M. luteus ATCC 9341; details: Micrococcus luteus, ATCC9341
Protocol: as §1, §2

[5] = tested on: S. marcescens IAM 1184; details: Serratia marcescens, IAM1184, S. marcescens IAM 1184; read-out: MIC
Protocol: as §1, §2

[6] = tested on: K. pneuminiae No. 42
Protocol: as §1, §2

[7] = tested on: S. epidemidis IAM 1296
Protocol: as §1, §2

[8] = tested on: P. aeruginosa NCTC 10490; details: Pseudomonas aeruginosa, NCTC10490, P. aeruginosa NCTC 10490; read-out: MIC
Protocol: as §1, §2

[9] = tested on: P. mirabilis IFO 3849; details: Proteus mirabilis, IFO3849, P. mirabilis IFO 3849; read-out: MIC
Protocol: as §1, §2

[10] = tested on: S. aureus 195; details: Staphylococcus aureus; S. aureus 195 (MRSA)
Protocol: as §1, §2

[11] = tested on: E. coli CSH2(RE45); details: Escherichia coli
Protocol: as §1, §2

[12] = tested on: E. coli NHIJ JC-2; details: Escherichia coli, NHIJJC2
Protocol: as §1, §2

[13] = tested on: C. freundii ATCC 8090; details: Citrobacter freundii, ATCC8090, C. freundii ATCC 8090; read-out: MIC
Protocol: as §1, §2

[14] = tested on: A. calcoaceticos T59; details: read-out: MIC
Protocol: as §1, §2

[15] = tested on: P. cepacia; details: Burkholderia cepacia, read-out: MIC
Protocol: as §1, §2

[16] = tested on: K. pneuminiae IFO 3317
Protocol: as §1, §2

[17] = tested on: P. vulugaris OX-19
Protocol: as §1, §2

[18] = tested on: A. faecalis ATCC 3750; details: Alcaligenes faecalis, ATCC3750, A. faecalis ATCC 3750; read-out: MIC
Protocol: as §1, §2

[19] = tested on: E. cloacae Nek39; details: Enterobacter cloacae, NEK39, E. cloacae Nek39; read-out: MIC
Protocol: as §1, §2

[20] = tested on: M. morganii IFO 3848; details: Morganella morganii, IFO3848
Protocol: as §1, §2

[21] = tested on: S. aureus 209p JC-1; details: Staphylococcus aureus, 209P, read-out: MIC
Protocol: as §1, §2

[22] = tested on: B. subtilis ATCC 6633; details: Bacillus subtilis, ATCC6633, B. subtilis ATCC 6633; read-out: MIC
Protocol: as §1, §2

[23] = tested on: S. aureus 167; details: Staphylococcus aureus; S. aureus 167 (MRSA)
Protocol: as §1, §2

[24] = tested on: E. cloacae ATCC 13407; details: Enterobacter cloacae, ATCC13407, E. cloacae ATCC 13407; read-out: MIC
Protocol: as §1, §2

[25] = tested on: P. aeruginosa AKR17; details: Pseudomonas aeruginosa
Protocol: as §1, §2

SMILES | MIC [1] | MIC [2] | MIC [3] | MIC [4] | MIC [5] | MIC [6] | MIC [7] | MIC [8] | MIC [9] | MIC [10] | MIC [11] | MIC [12] | MIC [13] | MIC [14] | MIC [15] | MIC [16] | MIC [17] | MIC [18] | MIC [19] | MIC [20] | also measured
Nc1nnc(-c2cc[n+](CC3=C(C(=O)[O-])N4C(=O)[C@@H](NC(=O)/C(=N\O)c5csc(N)n5)[C@H]4SC3)cc2)o1 [Ex. 15, 7β-[2-(2-aminothiazol-4-yl)-2-syn-hydroxyiminoacetamido]-3-[4-(2-amino-1,3,4-oxadiazol-5-yl)pyridinio]methyl-3-cephem-4-carboxylate] | 0.78 µg/mL (≈ 1.44 µM) | 100 µg/mL (≈ 184 µM) | 0.39 µg/mL (≈ 0.718 µM) | 0.05 µg/mL (≈ 0.092 µM) | 0.2 µg/mL (≈ 0.368 µM) | 0.39 µg/mL (≈ 0.718 µM) | 0.1 µg/mL (≈ 0.184 µM) | 1.56 µg/mL (≈ 2.87 µM) | 0.2 µg/mL (≈ 0.368 µM) | 6.25 µg/mL (≈ 11.5 µM) | 0.39 µg/mL (≈ 0.718 µM) | 0.2 µg/mL (≈ 0.368 µM) | 0.2 µg/mL (≈ 0.368 µM) | 12.5 µg/mL (≈ 23 µM) | > 100 µg/mL | 0.2 µg/mL (≈ 0.368 µM) | 0.2 µg/mL (≈ 0.368 µM) | 1.56 µg/mL (≈ 2.87 µM) | 50 µg/mL (≈ 92 µM) | 0.1 µg/mL (≈ 0.184 µM) | MIC [21]: 0.39 µg/mL (≈ 0.718 µM); MIC [22]: 0.39 µg/mL (≈ 0.718 µM); MIC [23]: 6.25 µg/mL (≈ 11.5 µM); MIC [24]: 6.25 µg/mL (≈ 11.5 µM); MIC [25]: > 100 µg/mL
Nc1nc(-c2cc[n+](CC3=C(C(=O)[O-])N4C(=O)[C@@H](NC(=O)/C(=N\O)c5csc(N)n5)[C@H]4SC3)cc2)n[nH]1 [Ex. 16, 7β-[2-(2-aminothiazol-4-yl)-2-syn-hydroxyiminoacetamido]-3-[4-(3-aminotriazol-5-yl)pyridinio]methyl-3-cephem-4-carboxylate] | 0.78 µg/mL (≈ 1.44 µM) | > 100 µg/mL | 0.39 µg/mL (≈ 0.719 µM) | 0.025 µg/mL (≈ 0.0461 µM) | 0.2 µg/mL (≈ 0.369 µM) | 0.39 µg/mL (≈ 0.719 µM) | 0.1 µg/mL (≈ 0.184 µM) | 1.56 µg/mL (≈ 2.88 µM) | 0.2 µg/mL (≈ 0.369 µM) | 1.56 µg/mL (≈ 2.88 µM) | 0.2 µg/mL (≈ 0.369 µM) | 0.1 µg/mL (≈ 0.184 µM) | 0.2 µg/mL (≈ 0.369 µM) | 12.5 µg/mL (≈ 23 µM) | > 100 µg/mL | 0.1 µg/mL (≈ 0.184 µM) | 0.1 µg/mL (≈ 0.184 µM) | 1.56 µg/mL (≈ 2.88 µM) | > 100 µg/mL | 0.05 µg/mL (≈ 0.0922 µM) | MIC [21]: 0.2 µg/mL (≈ 0.369 µM); MIC [22]: 0.2 µg/mL (≈ 0.369 µM); MIC [23]: 3.13 µg/mL (≈ 5.77 µM); MIC [24]: 12.5 µg/mL (≈ 23 µM); MIC [25]: > 100 µg/mL
Nc1nc(-c2ccc[n+](CC3=C(C(=O)[O-])N4C(=O)[C@@H](NC(=O)/C(=N\O)c5csc(N)n5)[C@H]4SC3)c2)no1 [Ex. 14, 7β-[2-(2-aminothiazol-4-yl)-2-syn-hydroxyiminoacetamido)-3-[3-(5-amino-1,2,4-oxadiazol-3-yl)pyridinio]methyl-3-cephem-4-carboxylate] | 0.78 µg/mL (≈ 1.44 µM) | > 100 µg/mL | 0.39 µg/mL (≈ 0.718 µM) | 0.05 µg/mL (≈ 0.092 µM) | 0.78 µg/mL (≈ 1.44 µM) | 0.78 µg/mL (≈ 1.44 µM) | 0.1 µg/mL (≈ 0.184 µM) | 3.13 µg/mL (≈ 5.76 µM) | 0.39 µg/mL (≈ 0.718 µM) | 6.25 µg/mL (≈ 11.5 µM) | 0.39 µg/mL (≈ 0.718 µM) | 0.39 µg/mL (≈ 0.718 µM) | 0.2 µg/mL (≈ 0.368 µM) | 12.5 µg/mL (≈ 23 µM) | > 100 µg/mL | 0.39 µg/mL (≈ 0.718 µM) | 0.39 µg/mL (≈ 0.718 µM) | 3.13 µg/mL (≈ 5.76 µM) | 100 µg/mL (≈ 184 µM) | 0.2 µg/mL (≈ 0.368 µM) | MIC [21]: 0.2 µg/mL (≈ 0.368 µM); MIC [22]: 0.2 µg/mL (≈ 0.368 µM); MIC [23]: 12.5 µg/mL (≈ 23 µM); MIC [24]: 3.13 µg/mL (≈ 5.76 µM); MIC [25]: > 100 µg/mL
